Earlier results in patent US6306900A, “Enteric coated pharmaceutical compositions” (priority 1996, dated 2001).

Key:
[1] = patients; origin not known
[2] = W. A. Lee et al
[3] = in words

| Structure (SMILES) | side-effects [1] | bioavailability [2] [%] | known activity [3] |
| --- | --- | --- | --- |
| COc1c(C)c2c(c(O)c1C/C=C(\C)CCC(=O)OCCN1CCOCC1)C(=O)OC2 [MMF, mycophenolate mofetil] | gastro-intestinal side effects | 100 |  |
| COc1c(C)c2c(c(O)c1C/C=C(\C)CCC(=O)O)C(=O)OC2 [MPA, Mycophenolic acid] |  | 43 | anti-tumor, anti-viral, immunosuppressive, anti-psoriatic, and anti-inflammatory activity |
